Experimental data as given in ChEMBL document CHEMBL1137636, “Genetic characteristics and clonal dissemination of beta-lactamase-negative ampicillin-resistant Haemophilus influenzae strains isolated from the upper respiratory tract of patients in Japan” (2007).
Converted amounts (≈) assume the structure as drawn.

Legend:
Format in all cases: functional
[1] = tested on: Haemophilus influenzae; assay: Antibacterial activity against genetically […] but without an amino acid substitution in ftsI gene assessed as susceptibility rate by broth microdilution method
[2] = tested on: Haemophilus influenzae; assay: Antibacterial activity against genetically beta-lactamase-negative ampicillin-susceptible Haemophilus influenzae type b without amino acid substitutions in ftsI gene and bla gene assessed as resistance rate by broth microdilution method
[3] = tested on: Haemophilus influenzae; assay: Antibacterial activity against genetically beta-lactamase-negative ampicillin-resistant Haemophilus influenzae type b with an amino acid substitution in variable mutated locus Asn-526 or Arg-517 of ftsI gene assessed as resistance rate by broth microdilution method
[4] = tested on: Haemophilus influenzae; assay: Antibacterial activity against genetically beta-lactamase-negative ampicillin-resistant Haemophilus influenzae type b with an amino acid substitution in variable mutated locus Asn-526 or Arg-517 of ftsI gene by broth microdilution method
[5] = tested on: Haemophilus influenzae; assay: Antibacterial activity against genetically […] but without an amino acid substitution in ftsI gene assessed as resistance rate by broth microdilution method
[6] = tested on: Haemophilus influenzae; assay: Antibacterial activity against genetically beta-lactamase-positive amoxicillin-clavulanate-resistant Haemophilus influenzae type b with an amino acid substitution in variable mutated locus Asn-526 or Arg-517 of ftsI gene by broth microdilution method
[7] = tested on: Haemophilus influenzae; assay: Antibacterial activity against genetically […] but without an amino acid substitution in ftsI gene by broth microdilution method
[8] = tested on: Haemophilus influenzae; assay: Antibacterial activity against genetically beta-lactamase-negative ampicillin-resistant Haemophilus influenzae type b with an amino acid substitution in variable mutated locus Asn-526 or Arg-517 of ftsI gene assessed as susceptibility rate by broth microdilution method
[9] = tested on: Haemophilus influenzae; assay: Antibacterial activity against genetically beta-lactamase-positive amoxicillin-clavulanate-resistant Haemophilus influenzae type b with an amino acid substitution in highly mutated locus Ser-385 of ftsI gene by broth microdilution method
[10] = tested on: Haemophilus influenzae; assay: Antibacterial activity against genetically beta-lactamase-negative ampicillin-resistant Haemophilus influenzae type b with an amino acid substitution in highly mutated locus Ser-385 of ftsI gene assessed as resistance rate by broth microdilution method
[11] = tested on: Haemophilus influenzae; assay: Antibacterial activity against genetically beta-lactamase-positive amoxicillin-clavulanate-resistant Haemophilus influenzae type b with an amino acid substitution in highly mutated locus Ser-385 of ftsI gene assessed as resistance rate by broth microdilution method
[12] = tested on: Haemophilus influenzae; assay: Antibacterial activity against genetically beta-lactamase-positive amoxicillin-clavulanate-resistant Haemophilus influenzae type b with an amino acid substitution in variable mutated locus Asn-526 or Arg-517 of ftsI gene assessed as resistance rate by broth microdilution method
[13] = tested on: Haemophilus influenzae; assay: Antibacterial activity against beta-lactamase-negative ampicillin-resistant Haemophilus influenzae by Etest
[14] = tested on: Haemophilus influenzae; assay: Antibacterial activity against genetically beta-lactamase-negative ampicillin-susceptible Haemophilus influenzae type b without amino acid substitutions in ftsI gene and bla gene assessed as susceptibility rate by broth microdilution method
[15] = tested on: Haemophilus influenzae; assay: Antibacterial activity against genetically beta-lactamase-positive amoxicillin-clavulanate-resistant Haemophilus influenzae type b with an amino acid substitution in highly mutated locus Ser-385 of ftsI gene assessed as susceptibility rate by broth microdilution method
[16] = tested on: Haemophilus influenzae; assay: Antibacterial activity against genetically beta-lactamase-negative ampicillin-susceptible Haemophilus influenzae type b without amino acid substitutions in ftsI gene and bla gene by broth microdilution method
[17] = tested on: Haemophilus influenzae; assay: Antibacterial activity against genetically beta-lactamase-negative ampicillin-resistant Haemophilus influenzae type b with an amino acid substitution in highly mutated locus Ser-385 of ftsI gene by broth microdilution method
[18] = tested on: Haemophilus influenzae; assay: Antibacterial activity against genetically beta-lactamase-negative ampicillin-resistant Haemophilus influenzae type b with an amino acid substitution in highly mutated locus Ser-385 of ftsI gene assessed as susceptibility rate by broth microdilution method
[19] = tested on: Haemophilus influenzae; assay: Antibacterial activity against genetically beta-lactamase-positive amoxicillin-clavulanate-resistant Haemophilus influenzae type b with an amino acid substitution in variable mutated locus Asn-526 or Arg-517 of ftsI gene assessed as susceptibility rate by broth microdilution method
[20] = tested on: Haemophilus influenzae; assay: Antibacterial activity against beta-lactamase-negative ampicillin-resistant Haemophilus influenzae with mutation in AcrAB repressor gene […]

Row | Compound | Activity [2] [%] | Activity [3] [%] | MIC50 [4] [µg/mL] | MIC90 [4] [µg/mL] | Activity [8] [%] | Activity [10] [%] | Activity [14] [%] | MIC50 [16] [µg/mL] | MIC90 [16] [µg/mL] | MIC50 [17] [µg/mL] | MIC90 [17] [µg/mL] | Activity [18] [%] | also measured
1 | CC1(C)S[C@@H]2[C@H](NC(=O)[C@H](N)c3ccccc3)C(=O)N2[C@H]1C(=O)O [AMPICILLIN] | 0 | 8.1 | 0.5 (≈ 1.43 µM) | 2 (≈ 5.72 µM) | 68.4 | 71.6 | 100 | 0.5 (≈ 1.43 µM) | 0.5 (≈ 1.43 µM) | 4 (≈ 11.4 µM) | 16 (≈ 45.8 µM) | 9.5 | Activity [1]: 0%; Activity [5]: 100%; MIC50 [6]: 128 µg/mL; MIC90 [6]: 128 µg/mL; MIC50 [7]: 64 µg/mL (≈ 183 µM); MIC90 [7]: > 128 µg/mL; MIC50 [9]: > 128 µg/mL; MIC90 [9]: > 128 µg/mL; Activity [11]: 100%; Activity [12]: 100%; MIC [13]: 256 µg/mL (≈ 733 µM); Activity [15]: 0%; Activity [19]: 0%; MIC [20]: 8 µg/mL (≈ 22.9 µM)
2 | COCC1=C(C(=O)O)N2C(=O)[C@@H](NC(=O)/C(=N\OC)c3csc(N)n3)[C@H]2SC1 [CEFPODOXIME] | 0 | 9.2 | 0.25 (≈ 0.585 µM) | 2 (≈ 4.68 µM) | 90.8 | 91.9 | 100 | 0.12 (≈ 0.281 µM) | 0.12 (≈ 0.281 µM) | 8 (≈ 18.7 µM) | 16 (≈ 37.4 µM) | 9.1 | 
3 | CO/N=C(\C(=O)N[C@@H]1C(=O)N2C(C(=O)OCOC(=O)C(C)(C)C)=C(/C=C\c3scnc3C)CS[C@H]12)c1csc(N)n1 [CEFDITOREN PIVOXIL] |  |  | ≤ 0.06 | 0.12 (≈ 0.193 µM) |  |  |  | ≤ 0.06 | ≤ 0.06 | 0.25 (≈ 0.403 µM) | 0.5 (≈ 0.805 µM) |  | 
4 | CC[C@H]1OC(=O)[C@H](C)[C@@H](O[C@H]2C[C@@](C)(OC)[C@@H](O)[C@H](C)O2)[C@H](C)[C@@H](O[C@@H]2O[C@H](C)C[C@H](N(C)C)[C@H]2O)[C@](C)(O)C[C@@H](C)CN(C)[C@H](C)[C@@H](O)[C@]1(C)O [AZITHROMYCIN] | 1.2 | 4.1 | 2 (≈ 2.67 µM) | 4 (≈ 5.34 µM) | 95.9 | 2.7 | 98.8 | 2 (≈ 2.67 µM) | 4 (≈ 5.34 µM) | 2 (≈ 2.67 µM) | 4 (≈ 5.34 µM) | 97.3 | 
5 | CC[C@H]1OC(=O)[C@H](C)C(=O)[C@H](C)[C@@H](O[C@@H]2O[C@H](C)C[C@H](N(C)C)[C@H]2O)[C@](C)(OC)C[C@@H](C)C(=O)[C@H](C)[C@H]2N(CCCCn3cnc(-c4cccnc4)c3)C(=O)O[C@]12C [TELITHROMYCIN] | 0 | 0 | 2 (≈ 2.46 µM) | 4 (≈ 4.93 µM) | 93.9 | 0 | 97.7 | 2 (≈ 2.46 µM) | 4 (≈ 4.93 µM) | 2 (≈ 2.46 µM) | 4 (≈ 4.93 µM) | 87.8 | 
6 | C[C@@H](O)[C@H]1C(=O)N2C(C(=O)O)=C(S[C@@H]3CN[C@H](C(=O)N(C)C)C3)[C@H](C)[C@H]12 [MEROPENEM] | 0 | 0 | 0.12 (≈ 0.313 µM) | 0.25 (≈ 0.652 µM) | 100 | 9.5 | 100 | ≤ 0.06 | ≤ 0.06 | 0.25 (≈ 0.652 µM) | 0.5 (≈ 1.3 µM) | 90.5 | 
7 | CC[C@H]1OC(=O)[C@H](C)[C@@H](O[C@H]2C[C@@](C)(OC)[C@@H](O)[C@H](C)O2)[C@H](C)[C@@H](O[C@@H]2O[C@H](C)C[C@H](N(C)C)[C@H]2O)[C@](C)(OC)C[C@@H](C)C(=O)[C@H](C)[C@@H](O)[C@]1(C)O [CLARITHROMYCIN] | 3.5 | 2 | 8 (≈ 10.7 µM) | 16 (≈ 21.4 µM) | 75.5 | 0 | 79.3 | 8 (≈ 10.7 µM) | 16 (≈ 21.4 µM) | 8 (≈ 10.7 µM) | 16 (≈ 21.4 µM) | 60.8 | 
8 | C[C@H]1COc2c(N3CCN(C)CC3)c(F)cc3c(=O)c(C(=O)O)cn1c23.C[C@H]1COc2c(N3CCN(C)CC3)c(F)cc3c(=O)c(C(=O)O)cn1c23.O [LEVOFLOXACIN] | 0 | 0 | ≤ 0.06 | ≤ 0.06 | 100 | 0 | 100 | ≤ 0.06 | ≤ 0.06 | ≤ 0.06 | ≤ 0.06 | 100 | 
9 | CO/N=C(\C(=O)N[C@@H]1C(=O)N2C(C(=O)O)=C(COC(N)=O)CS[C@H]12)c1ccco1 [CEFUROXIME] | 1.2 | 21.4 | 2 (≈ 4.71 µM) | 16 (≈ 37.7 µM) | 66.3 | 94.6 | 97.7 | 1 (≈ 2.36 µM) | 2 (≈ 4.71 µM) | 64 (≈ 151 µM) | 128 (≈ 302 µM) | 1.4 | 
